# Test results from US4450269A, “Mono-5-substituted-3-chloro-4H-1,2,6-thiadiazin-4-one antifungal agents” (FMC Corporation, priority 1980, dated 1984).
# Structures can show the parent of a compound that is named as a salt.
# Tests used:
# [1] = system: Cercospora beticola; test: whole plant or invertebrate; details: in Beta vulgaris, foliar, 24 h, read-out: Percent Disease Control, curative, sugar beet leaf spot
# [2] = system: Fusarium solani; test: Soil treatment, bean root rot; assay type: in vivo; details: Fusarium solani, soil, 336 h; 150 ppm suspension, 3.8 mg active per pot; read-out: Percent Disease Control, seed/soil, bean root rot
# Method: In a similar manner the soil around a bean seedling was drenched with a sufficient amount of 150 ppm suspension of test chemical to provide 3.8 mg active per pot. Twenty-four hours later the soil was inoculated with a suspension of minced mycelium of Fusarium solani. The inoculated plants were then placed in a greenhouse, evaluated after fourteen days, and percent control of root rot damage calculated. The results, reported in Table III, indicate only a few of the compounds tested are effective in treating Bean Root Rot but that these provide a high degree of control.
# [3] = system: Cladosporium cucumerinum; test: Spore germination test; assay type: cell-based; details: CC, 48 hours
# Procedure, shortened: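 Compound in acetone mixed into water agar at 40, 10, 2.5 and 1 ppm; plates seeded with spore suspension and incubated 48 hours at 24 °C. Percentage germinated spores counted and converted into a germination rating.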
# [4] = system: Pyricularia oryzae; test: microbe, parasite or virus in culture; assay type: cell-based; details: for inhibition at 5 ppm / inhibition at 10 ppm / inhibition at 20 ppm / inhibition at 40 ppm: Pyricularia oryzae, 72 h; for inhibition at 5 ppm: read-out: Percent Fungus Growth Inhibition, PO, 5 ppm, 72 hours; for inhibition at 10 ppm: read-out: Percent Fungus Growth Inhibition, PO, 10 ppm, 72 hours; for inhibition at 20 ppm: read-out: Percent Fungus Growth Inhibition, PO, 20 ppm, 72 hours; for inhibition at 40 ppm: read-out: Percent Fungus Growth Inhibition, PO, 40 ppm, 72 hours; for Percent Fungus Growth Inhibition: PO, 72 hours, hydrochloride
SMILES,pest or weed control at 150 ppm [1] [%],"pest or weed control at 150 ppm, 3.8 mg/pot [2] [%]",Spore Germination Rating ([3]; 1.0 ppm),Spore Germination Rating ([3]; 2.5 ppm),Spore Germination Rating ([3]; 10 ppm),Spore Germination Rating ([3]; 40 ppm),inhibition at 5 ppm [4] [%],inhibition at 10 ppm [4] [%],inhibition at 20 ppm [4] [%],inhibition at 40 ppm [4] [%],Percent Fungus Growth Inhibition ([4]; 5 ppm) [%],Percent Fungus Growth Inhibition ([4]; 10 ppm) [%],Percent Fungus Growth Inhibition ([4]; 20 ppm) [%],Percent Fungus Growth Inhibition ([4]; 40 ppm) [%]
"O=c1c(Cl)nsnc1Oc1ccccc1 [Compound 2, 3-chloro-5-phenoxy-4H--1,2,6-thiadiazin-4-one]",0,100,4 (80-100),4 (80-100),0 (0-10),0 (0-10),22,26,56,100,,,,
"Cc1ccc(Oc2nsnc(Cl)c2=O)cc1 [Compound 3, 3-chloro-5-(4-methylphenoxy)-4H--1,2,6-thiadiazin-4-one]",0,80,4 (80-100),4 (80-100),0 (0-10),0 (0-10),19,41,41,93,,,,
"CC(C)(C)c1ccc(Oc2nsnc(Cl)c2=O)cc1 [Compound 4, 3-chloro-5-(4-tert-butylphnoxy)-4H--1,2,6-thiadiazin-4-one]",0,0,4 (80-100),4 (80-100),0 (0-10),0 (0-10),0,0,0,19,,,,
"COc1ccc(Oc2nsnc(Cl)c2=O)cc1 [Compound 5, 3-chloro-5-(4-methoxyphenoxy)4H--1,2,6-thiadiazin-4-one]",0,50,4 (80-100),4 (80-100),0 (0-10),0 (0-10),4,22,48,63,,,,
"O=c1c(Cl)nsnc1Oc1c(Cl)cccc1Cl [Compound 18, 3-chloro-5-(2,6-dichlorophenoxy)-4H--1,2,6-thiadiazin-4-one]",98,,4 (80-100),0 (0-10),0 (0-10),0 (0-10),26,32,48,48,,,,
"Nc1ccc(Oc2nsnc(Cl)c2=O)cc1 [Compound 27, 5-(4-aminophenoxy)-3-chloro-4H--1,2,6-thiadiazine-4-one hydrochloride]",,,,,,,,,,,24,24,0,81
"O=c1c(Cl)nsnc1Oc1ccc(O)cc1 [Compound 35, 3-chloro-5-(4-hydroxyphenoxy)-4H-1,2,6-thiadiazin-4-one]",,,4 (80-100),0 (0-10),3 (60-80),0 (0-10),23,38,100,100,,,,
"O=C(Nc1ccccc1)Oc1ccc(Oc2nsnc(Cl)c2=O)cc1 [Compound 37, 3-chloro-5-[4-(phenylaminocarbonyloxy)phenoxy]-4H-1,2,6,-thiadiazin-4-one]",,,0 (0-10),1 (10-40),0 (0-10),0 (0-10),44,44,61,61,,,,
"O=C(OCc1ccccc1)Oc1ccc(Oc2nsnc(Cl)c2=O)cc1 [Compound 38, 3-chloro-5-[4-(phenylmethoxycarbonyloxy)phenoxyl]-4H-1,2,6-thiadiazin-4-one]",,,4 (80-100),4 (80-100),3 (60-80),3 (60-80),8,15,23,46,,,,
"CSc1ccc(Oc2nsnc(Cl)c2=O)cc1 [Compound 39, 3-chloro-5-[(4-methylthio)phenoxy]-4H-1,2,6,-thiadiazin-4-one]",,,1 (10-40),0 (0-10),0 (0-10),0 (0-10),42,61,61,61,,,,
"C[S+]([O-])c1ccc(Oc2nsnc(Cl)c2=O)cc1 (stereo not shown) [Compound 40, 3-chloro-5-[(4-methylsulfinyl)phenoxy]-4H-1,2,6,-thiadiazin-4-one]",,,4 (80-100),0 (0-10),0 (0-10),0 (0-10),33,47,42,89,,,,
"N#CCc1ccc(Oc2nsnc(Cl)c2=O)cc1 [Compound 46, 3-chloro-5-[(4-cyanomethyl)-phenoxy]4H--1,2,6-thiadiazin-4-one]",,,4 (80-100),0 (0-10),0 (0-10),0 (0-10),38,77,100,100,,,,
"CC(=O)c1cccc(Oc2nsnc(Cl)c2=O)c1 [Compound 48, 3-(3-acetylphenoxy)-5-chloro-4H--1,2,6-thiadiazin-4-one]",,95,0 (0-10),0 (0-10),0 (0-10),0 (0-10),56,67,100,100,,,,
"COc1ccc(Cl)c(Oc2nsnc(Cl)c2=O)c1 [Compound 51, 3-chloro-5-[(2-chloro-5-methoxy)phenoxy]-4H--1,2,6-thiadiazin-4-one]",,,3 (60-80),0 (0-10),0 (0-10),0 (0-10),46,77,92,100,,,,
"O=c1c(Cl)nsnc1Oc1ccc([N+](=O)[O-])cc1Cl [Compound 53, 3-chloro-5-(2-chloro-4-nitrophenoxy)-4H--1,2,6-thiadiazin-4-one]",,,0 (0-10),0 (0-10),0 (0-10),0 (0-10),69,75,78,67,,,,
"Cc1ccc(Cl)c(Oc2nsnc(Cl)c2=O)c1 [Compound 56, 3-chloro-5-[(2-chloro-5-methyl)phenoxy]-4H--1,2,6-thiadiazin-4-one]",,,4 (80-100),0 (0-10),0 (0-10),0 (0-10),38,67,100,100,,,,
"COc1cc(Oc2nsnc(Cl)c2=O)cc(OC)c1C(C)=O [Compound 61, 3-[(4-acetyl-3,5-dimethoxy)-phenoxy]-5-chloro-4H--1,2,6-thiadiazin-4-one]",,,4 (80-100),0 (0-10),0 (0-10),0 (0-10),28,42,50,44,,,,
